Source: patent EP0003920A1, “Thieno (3,2-c)- and thieno (2,3-c)pyridines, process for their preparation and their therapeutical application” (OMNIUM FINANCIER AQUITAINE POUR L'HYGIENE ET LA SANTE - …, priority 1978, dated 1979)

What was measured:
[1] = tested on: souris; assay: Potentiation of an infra-hypnotic dose of sodium pentobarbital; assay type: in vivo; conditions: mouse, 100 mg/kg oral, 30 min before i.p. infra-hypnotic dose of sodium pentobarbital; control 0
Experimental: Les composés de l'invention potentialisent de façon très nette l'action des hypnotiques. En effet, administrés à différents lots de souris par la voie orale, à la dose de 100 mg/ kg, trente minutes avant l'injection intrapéritonéale d'une dose infra-hypnotique de pentobarbital sodique, ils produisent par rapport aux animaux témoins non traités, une nette poten- tialisation de l'action du barbiturique.
En effet, le nombre de souris endormies, le temps moyen d'endormissement et la durée du sommeil sont nettement accrus dans les lots traités. Les résultats des composés les plus actifs sont rassemblés dans le Tableau I suivant.

[2] = tested on: rat; assay: Generalised ovalbumin oedema; assay type: in vivo; conditions: po, 100 mg/kg per os 1 h before and together with ovalbumin
Experimental: Une injection intrapéritonéale simultanée de 1 ml d'ovalbumine et de 0,5 ml d'une solution aqueuse de bleu Evans à 1% est effectuée sur le rat. D'autre part, on administre per os aux animaux du lot traité 100 mg/kg du dérivé à tester une heure avant et en même temps que l'ovalbumine. L'intensité du phénomène ainsi provoqué est notée par un chiffre allant de 1 à 5 suivant la progression du syndrome inflammatoire. On détermine ainsi la moyenne de l'intensité oedémateuse et le pourcentage de diminution de la réaction oedémateuse par rapport au témoin, en fonction du temps.

[3] = tested on: rat; assay: Anticonvulsant action against electroshock; assay type: in vivo; conditions: 100 mg/kg oral, electroshock 30 min after treatment, score 0 to 4, untreated controls 4
Experimental: Cette action a été étudiée vis-à-vis des électrochocs. L'application chez le rat d'une stimulation électrique supérieure au seuil électro-convulsivant provoque des convulsions expérimentales. On compare alors chez les animaux témoins et chez les animaux traités, à la fois la présence et la durée de chacune des phases convulsives et l'intensité de la crise dans son ensemble.
On établit des séries de 10 rats par produit à tester et on administre par la voie orale, à chaque animal, 100 mg/kg de ce produit.
De chaque côté de la base de la queue de chaque […], une électrode Cat mise en place et 30 minutes après le traitement, l'animal placé dans une enceinte de verre reçoit pendant 50 millisecondes un courant sinusoïdal de 50 périodes/secondes de 120 volts.
Le passage du courant déclenche une crise convulsive dont chacune des phases (tonique, clonique, relachement musculaire) est chronométrée. L'intensité de la crise est alors notée de 0 à 4 selon la présence de chacune des phases et leur durée. Les produits de l'invention sont testés comparativement au phénobarbital qui possède une action anti-convulsivante marquée (intensité de la crise = 2), alors que chez les animaux témoins non traités c'est l'intensité maxima de 4 qui est obtenue.

[4] = Acute toxicity, intravenous LD50 (method of Miller and Tainter); set-up: species or system souris; conditions: mouse, in vivo, read-out: DL50/24 H/kg de poids corporel
Experimental: En ce qui concerne la toxicité aigüe, la DL50/24 H/kg de poids corporel, déterminée chez la souris selon la méthode de Miller et Tainter pour la voie orale est supérieure à 400 mg pour tous les dérivés.
Selon la même méthode, la DL50/24 H/kg de poids corporel déterminée par la vole intraveineuse est, par exemple, de 154 mg pour le dérivé N° 1, de 89 mg pour le dérivé N° 2, de 184mg pour le dérivé N° 10, de 130 mg pour le dérivé N° 11, de 350mg pour le dérivé N° 12, de 65 mg pour le dérivé N° 18, de 90 mg pour le dérivé N° 22, de 96 mg pour le dérivé N° 24 et de 105 mg pour le dérivé N° 31.

[5] = tested on: rat; assay: Localised carrageenan-induced oedema; assay type: in vivo; conditions: 100 mg/kg oral at -1 h, 0 h, +2.5 h
Experimental: Une solution de carragénine (0,1 ml), à 1 %, est injectée dans les fléchisseurs métatarsiens de la patte postérieure droite du rat au temps 0. Les animaux du lot traité reçoivent en outre, par la voie orale, 100 mg par kg du dérivé à tester respectivement 1 heure avant, en même temps que l'injection de l'agent phlogogène, puis 1 heure et 2 heures et demi après. Les mesures qui sont effectuées à l'aide du micromètre de ROGH au temps 0, 1 heure, 2 heures, 3 heures et 5 heures après l'administration de la carragénine permettent de déterminer, en fonction du temps, le pourcentage d'activité anti-inflammatoire, par comparaison avec le lot témoin.

[6] = 2 h after ovalbumin injection, read-out: Pourcentage d'activité anti-inflammatoire 2ème heure
[7] = 3 h after ovalbumin injection, read-out: Pourcentage d'activité anti-inflammatoire 3ème heure
[8] = 1 h after carrageenan, read-out: Pourcentage d'activité anti-inflammatoire 1ère heure
[9] = 2 h after carrageenan, read-out: Pourcentage d'activité anti-inflammatoire 2ème heure
[10] = 3 h after carrageenan, read-out: Pourcentage d'activité anti-inflammatoire 3ème heure
[11] = 5 h after carrageenan, read-out: Pourcentage d'activité anti-inflammatoire 5ème heure

SMILES | Pourcentage d'animaux endormis [1] [%] | inhibition in vivo at 100 mg/kg [2, 6] [%] | inhibition in vivo at 100 mg/kg [2, 7] [%] | valeurs moyennes de l'intensité des crises [3] | LD50 at 24 h [4] [mg/kg] | inhibition in vivo at 100 mg/kg [5, 8] [%] | inhibition in vivo at 100 mg/kg [5, 9] [%] | inhibition in vivo at 100 mg/kg [5, 10] [%] | inhibition in vivo at 100 mg/kg [5, 11] [%]
CNC(=O)c1cc2sccc2cn1 [Dérivé 1, Méthylaminocarbonyl-6 thiéno [3,2-c] pyridine] | 70 | 48 | 56 | 2,5 | 154 | 35 | 42 | 46 | 47
CCN(CC)CCNC(=O)c1cc2sccc2cn1 [Dérivé 18, β-diéthylaminoéthylaminocarbonyl-6 thiéno [3,2-c] pyridine] | 80 | 49 | 58 | – | 65 | 41 | 46 | 50 | 55
O=C(NCc1ccncc1)c1cc2sccc2cn1 [Dérivé 22, (pyridyl-4 méthyl)aminocarbonyl-6 thiéno[3,2-c]pyridine] | 70 | 51 | 58 | – | 90 | 41 | 47 | 51 | 55
NC(=O)c1cc2sccc2cn1 [Dérivé 31, carbamoyl-6 thiéno [3,2-C] pyridine] | – | – | – | 2,5 | 105 | – | – | – | –
